Here are results for 12 molecules from patent publication US5120736A, “4-methyl-5-(2-(4-phenylpiperazin-1-yl)ethyl)thiazole derivatives their method of preparation and the pharmaceutical compositions in which they are present” (Institut de Recherches Chimiques et Biologiques Appliquees, priority 1988, dated 1992).

Read-outs that look alike come from different tables or passages of the source.

The test system of series [1] is lethal effect of norepinephrine. The experiment in a line: adrenolytic activity in vivo in rats towards the lethal effect of norepinephrine. Conditions: Rattus norvegicus. As to the method:
3) Determination of the adrenolytic activity "in vivo" in rats:
(§1) a) Principle of the measurement
The intravenous injection of norepinephrine (0.4 mg.kg^-1) into wake rats causes the death of 100% of the animals. The prior administration of a substance with an alpha-blocking property enables this toxicity to be reduced.
The results are expressed in the form of the 50% effective dose (ED50), i.e. the dose in mg.kg^-1 which protects 50% of the animals.

Series [2] is described as follows: Acute toxicity in mice, single oral administration. Conditions: mouse, in vivo, male mice, 14 days observation, read-out: LD50 (50 percent lethal dose). As to the method:
1) Acute toxicity in mice:
Principle of the measurement
The products were administered orally, in a single dose, to male mice with an average weight of 22 g. The mortality was recorded after an observation period of 14 days.
The results are expressed in the form of the 50% lethal dose (LD50), i.e. the theoretical dose in mg.kg^-1, administered orally, which causes the death of 50% of the animals.

The target in series [3] is T1, post-synaptic alpha-adrenergic receptors (isolated rat vas deferens) (Rattus norvegicus, UniProt P43140).
T1 construct: isolated rat vas deferens; from tissue; host or cells: isolated rat vas deferens
T1 sequence (P43140 1-466): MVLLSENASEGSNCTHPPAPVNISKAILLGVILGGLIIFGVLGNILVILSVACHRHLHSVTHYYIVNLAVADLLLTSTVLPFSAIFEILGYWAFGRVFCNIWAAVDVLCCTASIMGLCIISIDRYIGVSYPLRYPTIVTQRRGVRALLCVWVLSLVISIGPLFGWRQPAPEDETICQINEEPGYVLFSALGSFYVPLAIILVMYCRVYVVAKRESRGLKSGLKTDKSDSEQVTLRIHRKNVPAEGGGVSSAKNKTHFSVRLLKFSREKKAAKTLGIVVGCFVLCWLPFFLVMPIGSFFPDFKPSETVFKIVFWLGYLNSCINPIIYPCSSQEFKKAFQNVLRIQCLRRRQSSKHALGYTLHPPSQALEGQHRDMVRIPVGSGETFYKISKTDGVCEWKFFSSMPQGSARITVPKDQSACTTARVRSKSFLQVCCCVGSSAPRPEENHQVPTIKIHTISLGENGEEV
The experiment in a line: alpha-blocking activity towards norepinephrine on isolated rat vas deferens. Conditions: norepinephrine contraction, read-out: pA2 (converted). On the procedure:
2) Determination of the alpha-blockinq activity on isolated rat vas deferens
as §1
Stimulation of the post-synaptic alpha-adrenergic receptors by norepinephrine causes contraction of the isolated vas deferens.
The concentration of product in whose presence the norepinephrine concentration must be doubled to obtain the same effect as in the absence of said product is determined.
The logarithm of this concentration, with its sign changed, constitutes the pA2 of the products.

In series [4] the test system is increase in ureteral pressure induced by norepinephrine. The series is described as follows: inhibitory action on the increase in ureteral pressure induced in rabbits by intravenous norepinephrine. Format: in vivo, anesthetized male rabbits. The settings on record: for ED50: Oryctolagus cuniculus, iv, norepinephrine-induced ureteral hyperpressure, read-out: ID50 (50 percent inhibitory dose). On the procedure: 4) Determination of the inhibitory action of the compounds towards the increase in ureteral pressure induced in rabbits by the intravenous administration of norepinephrine
as §1
The ureteral pressure is measured by catheterization of the prostatic ureter of anesthetized male rabbits. The increase in ureteral pressure is induced by an intravenous injection of norepinephrine. This hyperpressure can be inhibited by the prior administration of molecules with alpha-blocking potential.
These are shown in Table 5 in the form of the 50% inhibitory dose (ID50), which is defined as being the dose of product which, when administered intravenously, causes a 50% inhibition of the ureteral hyperpressure induced by norepinephrine.

Where [5] appears, read: oral, norepinephrine 0.4 mg.kg^-1 i.v., read-out: ED50 (50 percent effective dose).

Regarding `Cc1ncsc1CCN1CCN(c2ccccc2)CC1` [4-methyl-5-[2-(4-phenylpiperazin-1-yl)ethyl]thiazole, reference compound], in series [1] (po, prior-art compound, under the same conditions, read-out: ED50), the ED50 came to 8.7 mg/kg.
The LD50 is the dose expected to kill half of the subjects tested. As for `CCOc1ccccc1N1CCN(CCc2scnc2C)CC1.Cl.Cl.Cl` [B 1211, 4-methyl-5-[2-(4-o-ethoxyphenylpiperazin-1-yl)ethyl]thiazole trihydrochloride], the LD50 at 336 h in series [2] was greater than 1000 mg/kg. For the same molecule, the Kb in series [3] is 26.3 nM. The ED50 amounted to 2 mg/kg in series [1] (setting [5]) and 0.16 mg/kg in series [4].
For `Cc1ncsc1CCN1CCN(c2ccccc2O)CC1.Cl.Cl` [B 1302, 4-methyl-5-[2-(4-o-hydroxyphenylpiperazin-1-yl)ethyl]thiazole dihydrochloride], in series [2], the median lethal dose (LD50) at 336 h came to 490 mg/kg. In addition, the Kb in series [3] was 126 nM. Also, the ED50 is 4 mg/kg in series [1] (setting [5]) and 0.44 mg/kg in series [4].
The like results for `CCCCOc1ccccc1N1CCN(CCc2scnc2C)CC1.Cl` [B 1341, 4-methyl-5-[2-(4-o-butoxyphenylpiperazin-1-yl)ethyl]thiazole monohydrochloride] were, in that order, greater than 1000 mg/kg, 10 nM, 1 mg/kg and 0.39 mg/kg.
`CCCCCOc1ccccc1N1CCN(CCc2scnc2C)CC1.Cl` [B 1357, 4-methyl-5-[2-(4-o-pentoxyphenylpiperazin-1-yl)ethyl]thiazole monohydrochloride]: the 50% lethal dose (LD50) at 336 h in series [2] is greater than 1000 mg/kg. Moreover, in series [3], the Kb is 17 nM. In addition, the values for the ED50 in series [1] (setting [5]) and in series [4] were 1.8 mg/kg and 0.46 mg/kg, respectively.
Turning to `CCCOc1ccccc1N1CCN(CCc2scnc2C)CC1` [B 1359], the LD50 at 336 h in series [2] was greater than 1000 mg/kg. Besides, in series [3], the Kb is 57.5 nM. The ED50 in series [1] (setting [5]) worked out at 1.93 mg/kg.
On to `Cc1ncsc1CCN1CCN(c2ccccc2OC(C)C)CC1.Cl` [B 1398, 4-methyl-5-[2-(4-o-isopropoxyphenylpiperazin-1-yl)ethyl]thiazole monohydrochloride], for which the LD50 at 336 h in series [2] was greater than 1000 mg/kg. In addition, in series [3], the Kb was 17 nM. Also, the ED50 was determined as 0.44 mg/kg in series [1] (setting [5]) and 0.09 mg/kg in series [4]. In addition, the “effectiveness against ureteral hyperpressure (in words)” value in series [4] (i.v., in words) is on record as “remarkably effective”.
Consider `Cc1ncsc1CCN1CCN(c2ccccc2OCC(C)C)CC1` [B 1422], for which the LD50 at 336 h in series [2] is greater than 1000 mg/kg. Besides, the Kb in series [3] was 36.3 nM. In addition, the ED50 in series [1] (setting [5]) was 1.6 mg/kg.
The like results for `Cc1ncsc1CCN1CCN(c2ccccc2OCCC(C)C)CC1` [B 1423] were, in that order, greater than 1000 mg/kg, 45.7 nM and 2.35 mg/kg.
`Cc1ncsc1CCN1CCN(c2ccccc2OCC(C)(C)C)CC1` [B 1424]: the LD50 at 336 h in series [2] was greater than 1000 mg/kg. In addition, the Kb in series [3] is 200 nM. Besides, in series [1] (setting [5]), the ED50 is 2.04 mg/kg.
With `Cc1ncsc1CCN1CCN(c2ccccc2OCc2ccccc2)CC1` [B 1425], the median lethal dose (LD50) at 336 h in series [2] was greater than 1000 mg/kg. Also, in series [3], the Kb is 63.1 nM. Further, the ED50 in series [1] (setting [5]) stood at 5 mg/kg.
Turning to `COc1ccccc1N1CCN(CCc2scnc2C)CC1.Cl.Cl.Cl` [B 1433, 4-methyl-5-[2-(4-o-methoxyphenylpiperazin-1-yl)ethyl]thiazole trihydrochloride], the LD50 at 336 h in series [2] was greater than 1000 mg/kg. The Kb in series [3] was 14.5 nM. For the same molecule, the ED50 in series [1] (setting [5]) was found to be 2.66 mg/kg; in series [4] it was 0.3 mg/kg.
